SMILES strings stand for the structures.

Series [1] in a line: Emulsion from oil solution plus equal volume of water: particle size and stability. The format is physicochemical. On the procedure:
An emulsion was prepared by combining 1 volume of oil solution with an equal volume of de-ionized water. […] The emulsion is then stirred continuously to maintain homogeneity.
An emulsion was prepared by combining 1 volume of oil solution with an equal volume of de-ionized water. This mixture was stirred for 10 minutes and then vortex mixed for 2 minutes. […] It was stirred continuously to maintain homogeneity.
An emulsion was prepared by combining combining 1 volume of oil solution with an equal volume of de-ionized water. This mixture was stirred for 10 minutes and then vortex mixed for 2 minutes. […] It was stirred continuously to maintain homogeneity.

Series [2] is described as follows: Pharmacokinetics in dogs. The format is in vivo, Male Beagle dogs. Conditions: for Cmax / Tmax: male, Beagle, dog, plasma, po. On the procedure: Male Beagle dogs (n=6) between the ages of 2-5 and weighing 6-12 kg were dosed with capsules followed by 50 mL of water. […] The dogs were either fasted or fed just prior to dosing with 14 g of dry dog food and 8 gm olive oil. The same set of dogs were used for all formulations, except where indicated. […]
Unless otherwise indicated, results are for the fasted state. Miglyol® softgels have a very low fasted exposure and thus a high food effect. The fasted exposure is higher than that for crystalline suspension, while the fed exposure using this high oil meal is the same. Thus Miglyol softgels provide a lower food effect than crystalline drug. At the same dose of 90 mgA, formulations such as A, O, and C that include surfactants and cosolvent have much higher fasted exposures and only a ca. 3× food effect. The fed exposures are also higher than for Miglyol® 812 softgels and crystalline drug. Poorer fasted exposure was obtained for Formulation WW, which contains a high level of ethyl lactate as a cosolvent.

Series [3] in a line: Equilibrium solubility in excipients, vehicles and emulsion preconcentrates. The format is physicochemical. On the procedure:
The solubility of CETP inhibitors in excipients and in formulations was determined by adding an excess of compound to the medium in question. The mixture was agitated by rotation over a period of days at ambient temperature until the concentration in solution had reached an equilibrium as judged by similar measurements for consecutive time points. Concentrations were measured by filtration of aliquots with a PTFE syringe filter and assay by HPLC as described in Example 11.
The solubility of crystalline CETP inhibitors in representative vehicles was determined by adding an excess of compound to the vehicle in question. The mixture was agitated by rotation over a period of days at ambient temperature until the concentration in solution had reached equilibrium as judged by similar measurements for consecutive time points. Concentrations were measured by filtration of aliquots with a PTFE syringe filter and assayed by HPLC.
The concentrations of CETP inhibitor in each vehicle were assayed at intervals by dilution of aliquots into acetonitrile and gradient HPLC analysis on a Water Symmetry C-8 column (3.9×150 mm, 5 micron) at 30° C. at a flow rate of 1 mL/min. […] The detection method was UV absorbance at 210 nm.

The nature of series [4]: Extent of emulsification, droplet size by optical microscope. The format is physicochemical. On the procedure: The extent of emulsification was determined by mixing the preconcentrate and water in a ratio of 1:100 and 1:10 by gentle inversion (5×), visual inspection, and examination under an optical microscope, using a polarizing filter to check for the appearance of crystals. Droplet size determined by this approach is expressed as the upper limit for the average droplet size, since submicron droplets cannot be detected by this method.

A short description of series [5]: Microsolubility estimate by repeated addition of vehicle. The format is physicochemical. On the procedure:
For CETP inhibitors where quantities were limited, an estimate of solubility was obtained by addition of vehicle to a known quantity of the compound and mixing in an ultrasonicator bath for 90 minutes, followed by overnight equilibration at ambient temperature. Addition of vehicle was repeated until a solution was achieved.
For CETP inhibitors where quantities were limited or the samples were amorphous solids, an estimate of solubility was obtained by addition of vehicle to a known quantity of the compound and mixing in an ultrasonicator bath for 90 minutes, followed by overnight equilibration at ambient temperature. Addition of vehicle was repeated until a solution was achieved. From the total volume of vehicle added to solubilize the CETP inhibitor compound, the solubility value, or so-called microsolubility, was calculated by the equation: Weight of sample (mgA)/vehicle volume (mL)=Microsolubility (mgA/mL)

The nature of series [6]: Dynamic light scattering particle size analysis of emulsions. The format is physicochemical. On the procedure: Preliminary particle size analysis data has been obtained on selected formulations using a dynamic light scattering particle size analyzer (ZetaPals, Brookhaven Instruments, Inc.) for measurement of sub-micron particle distribution. The formulation solutions were diluted 1:100 in HPLC-grade water (previously filtered through a 0.22 μm syringe filter). The resulting mixture was gently inverted five times to create the emulsion. Each emulsion sample was then analyzed at a temperature of 37° C. Triplicate measurements were made at each time point (0, 30 min).

Setting [7] is: 90 mg, Fed, Miglyol 812/Triacetin/Cremophor RH40/Capmul MCM (20/30/20/30).
Setting [8] is: 90 mg, fasted, Miglyol 812/Triacetin/Cremophor RH40/Capmul MCM (20/30/20/30).
Setting [9] is: equilibrium, vehicle Miglyol 812.
Setting [10] is: equilibrium, vehicle Miglyol 812/propylene carbonate/Cremophor EL (60/20/20).
Setting [11] is: preconcentrate Miglyol 812/Triacetin/Polysorbate 80/Capmul MCM 22/27/20/31 % v/v.
Where [12] appears, read: 60 mg, fasted, Miglyol 812/Triacetin/Polysorbate 80/Capmul MCM (22/27/20/31).

For `CC[C@@H]1C[C@H](N(Cc2cc(C(F)(F)F)cc(C(F)(F)F)c2)C(C)=O)c2cc(C(F)(F)F)ccc2N1C(=O)OC(C)C` [Compound D, [2R,4S] 4-[acetyl-(3,5-bis-trifluoromethyl-benzyl)-amino]-2-ethyl-6-trifluoromethyl-3,4-dihydro-2H-quinoline-1-carboxylic acid isopropyl ester], the “chemical degradation or crystallization” value in series [1] (Example 19 oil after storage for 8 days or emulsion after 24 hr) is “No chemical degradation based on HPLC analysis or crystallization based on microscopic examination was detected”. Also, the “AUG 0-tlast” value was determined as 4840 ± 1230 ng·h/mL in series [2] (Fed, 90 mg, Miglyol 812/Triacetin/Cremophor RH40/Capmul MCM (20/30/20/30), Tlast 24 hr) and 3450 ± 960 ng·h/mL in series [2] (fasted, 90 mg, 100 mg/mL in Miglyol 812/Triacetin/Cremophor RH40/Capmul MCM (20/30/20/30), Tlast 24 hr). Besides, the values for the peak concentration (Cmax) in series [2] (setting [7]) and in series [2] (setting [8]) were 1200 ± 410 ng/mL and 860 ± 310 ng/mL, respectively. Further, the Tmax (usually the time from dosing to the highest level) is 1.5 h in series [2] (setting [7]) and 1.7 h in series [2] (setting [8]). Moreover, the Solubility in series [3] (equilibrium, vehicle Capmul MCM) was found to be 58 mgA/ml; in series [3] (equilibrium, vehicle Cremophor EL), 18 mgA/ml; in series [3] (setting [9]), 61 mgA/ml; in series [3] (equilibrium, vehicle Miglyol 812/Cremophor EL 80/20), 51 mgA/ml; in series [3] (setting [10]) it was 208 mgA/ml; in series [3] (equilibrium, vehicle Olive oil) it was 13 mgA/ml. Also, the Solubility in series [3] (equilibrium, vehicle Olive oil/Cremophor EL 80/20) is 14 mgA/ml; in series [3] (equilibrium, vehicle Triacetin) it was 239 mgA/ml; in series [3] (preconcentrate Miglyol 812/Triacetin/Cremophor RH40/Capmul MCM 20/30/20/30 % v/v) it was 172 mgA/mL.
With `CCC(CC)CC1(C(=O)Nc2ccccc2SC(=O)C(C)C)CCCCC1` [Compound B, Propanethioic acid, 2-methyl-, S-[2-[[[1-(2-ethylbutyl)cyclohexyl]carbonyl]amino]phenyl]ester], the “Ave Droplet Size (1:100 dilution)” value in series [4] (preconcentrate Miglyol 812/Triacetin/Polysorbate 80/Capmul MCM 20/30/20/30 % v/v) is recorded as <5 μ. The Solubility is < 100 mg/mL in series [5] (Capmul MCM, oil or lipid, thermodynamic from solid, read-out: Microsolubility); < 20 mg/mL in series [5] (Crodamol GTCC, oil or lipid, thermodynamic from solid, read-out: Microsolubility); < 100 mg/mL in series [5] (Crodamol GTCC/Capmul MCM/Polysorbate 80 (40/40/20), oil or lipid, thermodynamic from solid, read-out: Microsolubility); < 100 mg/mL in series [5] (Olive oil, oil or lipid, thermodynamic from solid, read-out: Microsolubility); < 100 mg/mL in series [5] (PEG 400, organic solvent or mixture, thermodynamic from solid, read-out: Microsolubility); < 100 mg/mL in series [5] (oil or lipid, thermodynamic from solid, read-out: Microsolubility). The Solubility entry in series [5] (preconcentrate Miglyol 812/Triacetin/Polysorbate 80/Capmul MCM 20/30/20/30 % v/v, amorphous solid) is “≧100 mgA/mL”.
As for `CC[C@@H]1C[C@H](N(Cc2cc(C(F)(F)F)cc(C(F)(F)F)c2)C(=O)OC)c2cc(C(F)(F)F)ccc2N1C(=O)OC(C)C` [Compound E, [2R,4S] 4-[(3,5-Bis-trifluoromethyl-benzyl)-methoxycarbonyl-amino]-2-ethyl-6-trifluoromethyl-3,4-dihydro-2H-quinoline-1-carboxylic acid isopropyl ester], the “Ave Droplet Size (1:100 dilution)” value in series [4] (setting [11]) is <2 μ. Also, the “Mean Diam.” value amounted to 175 nm in series [6] (30 min., 100 mg/mL in Miglyol 812/Triacetin/Polysorbate 80/Capmul MCM (22/27/20/31)); 251 ± 45 nm in series [6] (30 min., 200 mg/mL in Miglyol 812/Triacetin/Polysorbate 80/Capmul MCM (22/27/20/31)); 181 nm in series [6] (Initial, 100 mg/mL in Miglyol 812/Triacetin/Polysorbate 80/Capmul MCM (22/27/20/31)); 239 ± 17 nm in series [6] (Initial, 200 mg/mL in Miglyol 812/Triacetin/Polysorbate 80/Capmul MCM (22/27/20/31)). Besides, in series [1] (Example 15 oil or emulsion after storage for 24 hr, HPLC, microscopy), the “chemical degradation or crystallization” value is on record as “No chemical degradation based on HPLC analysis or crystallization based on microscopic examination was detected”. Also, the “average particle size of emulsion” value in series [1] (Example 15 oil solution (Miglyol 812/propylene carbonate/Cremophor EL, 275 mg/g) plus equal volume water) is “less than 10 microns”. For the same compound, in series [2] (fasted, 60 mg, 100 mg/mL in Miglyol 812/Triacetin/Polysorbate 80/Capmul MCM (22/27/20/31), Tlast 48 hr), the “AUG 0-tlast” value came to 2900 ± 670 ng·h/mL. Besides, the Cmax (commonly the highest concentration seen after dosing) in series [2] (setting [12]) came to 200 ± 140 ng/mL. Besides, in series [2] (setting [12]), the Tmax stood at 1.5 h. In addition, the Solubility amounted to 167 mgA/ml in series [3] (setting [9]); 394 mgA/ml in series [3] (setting [10]); 39 mgA/ml in series [3] (equilibrium, vehicle Olive oil); 308 mgA/mL in series [3] (setting [11]).

(Values after patent US6962931B2, “Self-emulsifying formulations of cholesteryl ester transfer protein inhibitors” (Pfizer Inc., priority 2001, dated 2005).)
